Experimental data as given in patent US20260131016A1, “NOVEL AURISTATIN ANALOGS AND IMMUNOCONJUGATES THEREOF” (ADCENTRX THERAPEUTICS INC., priority 2021, published 2026).

Experiments:
[1] = system: HCC1954 breast ductal carcinoma; assay: Cell viability (Cell Titer Glo 2.0) in HCC1954, 120 hours; assay type: cell-based; settings: for IC50: Homo sapiens, HCC1954, 120 h, read-out: IC50 (nM), in vitro potency in HCC1954
Description: (§1) HCC1954 breast ductal carcinoma and T47D cells (ATCC, Manassas, VA, USA) were seeded into 384-well white-walled culture plates and allowed to adhere for 2-4 hours. Cells were then treated at least in duplicate by addition of 5-fold serially diluted test articles prepared at 2× final concentration and incubated at 37° C. for 120 hours. Cell viability following treatment was determined by Cell Titer Glo 2.0 Assay (Promega, Madison, WI, USA) and normalized to non-treated controls. Dose-response relationships were analyzed using GraphPad Prism (La Jolla, CA, USA), and IC50 values were derived from non-linear regression analyses using a 4-parameter logistic equation.

T47D cells = assay: Cell viability (Cell Titer Glo 2.0) in T47D cells, 120 hours; assay type: cell-based
Description: as §1

[2] = N-methylated analogs 1,2-/1,3-/1,4-NH2, relative to the 1,3-NH2 analog (=1)
[3] = NCH3-amide compared to its NH-amide analog (=1)

SMILES | potency compared to the 1,4-NH2 configuration of the P5 moiety in 19 and 26 ([1]; HCC1954 and T47D assays) | IC50 [1] [nM] | IC50 (fold difference) HCC1954 [1, 2] [fold difference] | IC50 (fold difference) T47D (T47D cells; [2]) [fold difference] | IC50 (fold difference) HCC1954 [1, 3] [fold difference] | IC50 (fold difference) T47D (T47D cells; [3]) [fold difference]
CC[C@H](C)[C@@H]([C@@H](CC(=O)N1CCC[C@H]1[C@H](OC)[C@@H](C)C(=O)N(C)CCc1ccccc1N)OC)N(C)C(=O)[C@@H](NC(=O)[C@H](C)N(C)C)C(C)C [Compound 16, (S)-N-((3R,4S,5S)-1-((S)-2-((1R,2R)-3-((2-aminophenethyl)(methyl)amino)-1-methoxy-2-methyl-3-oxopropyl)pyrrolidin-1-yl)-3-methoxy-5-methyl-1-oxoheptan-4-yl)-2-((S)-2-(dimethylamino)propanamido)-N,3-dimethylbutanamide] | more potent | < 5 | 1.8 | 3.4 | – | –
CC[C@H](C)[C@@H]([C@@H](CC(=O)N1CCC[C@H]1[C@H](OC)[C@@H](C)C(=O)N(C)CCc1ccc(N)cc1)OC)N(C)C(=O)[C@@H](NC(=O)[C@H](C(C)C)N(C)C)C(C)C [Compound 19, (S)-N-((3R,4S,5S)-1-((S)-2-((1R,2R)-3-((4-aminophenethyl)(methyl)amino)-1-methoxy-2-methyl-3-oxopropyl)pyrrolidin-1-yl)-3-methoxy-5-methyl-1-oxoheptan-4-yl)-2-((S)-2-(dimethylamino)-3-methylbutanamido)-N,3-dimethylbutanamide] | – | < 5 | 2.1 | 3.8 | 2.3 | 6.9
CC[C@H](C)[C@@H]([C@@H](CC(=O)N1CCC[C@H]1[C@H](OC)[C@@H](C)C(=O)NCCc1cccc(N)c1)OC)N(C)C(=O)[C@@H](NC(=O)[C@H](C(C)C)N(C)C)C(C)C [Compound 20, (S)-N-((3R,4S,5S)-1-((S)-2-((1R,2R)-3-((3-aminophenethyl)amino)-1-methoxy-2-methyl-3-oxopropyl)pyrrolidin-1-yl)-3-methoxy-5-methyl-1-oxoheptan-4-yl)-2-((S)-2-(dimethylamino)-3-methylbutanamido)-N,3-dimethylbutanamide] | – | – | – | – | 1 | 1
CC[C@H](C)[C@@H]([C@@H](CC(=O)N1CCC[C@H]1[C@H](OC)[C@@H](C)C(=O)NCCc1ccccc1N)OC)N(C)C(=O)[C@@H](NC(=O)[C@H](C(C)C)N(C)C)C(C)C [Compound 21, (S)-N-((3R,4S,5S)-1-((S)-2-((1R,2R)-3-((2-aminophenethyl)amino)-1-methoxy-2-methyl-3-oxopropyl)pyrrolidin-1-yl)-3-methoxy-5-methyl-1-oxoheptan-4-yl)-2-((S)-2-(dimethylamino)-3-methylbutanamido)-N,3-dimethylbutanamide] | – | – | – | – | 1 | 1
CC[C@H](C)[C@@H]([C@@H](CC(=O)N1CCC[C@H]1[C@H](OC)[C@@H](C)C(=O)NCCc1ccc(N)cc1)OC)N(C)C(=O)[C@@H](NC(=O)[C@H](C(C)C)N(C)C)C(C)C [Compound 22, (S)-N-((3R,4S,5S)-1-((S)-2-((1R,2R)-3-((4-aminophenethyl)amino)-1-methoxy-2-methyl-3-oxopropyl)pyrrolidin-1-yl)-3-methoxy-5-methyl-1-oxoheptan-4-yl)-2-((S)-2-(dimethylamino)-3-methylbutanamido)-N,3-dimethylbutanamide] | – | – | – | – | 1 | 1
CC[C@H](C)[C@@H]([C@@H](CC(=O)N1CCC[C@H]1[C@H](OC)[C@@H](C)C(=O)N(C)CCc1ccc(N)cc1)OC)N(C)C(=O)[C@@H](NC(=O)[C@H](C)N(C)C)C(C)C [Compound 26, (S)-N-((3R,4S,5S)-1-((S)-2-((1R,2R)-3-((4-aminophenethyl)(methyl)amino)-1-methoxy-2-methyl-3-oxopropyl)pyrrolidin-1-yl)-3-methoxy-5-methyl-1-oxoheptan-4-yl)-2-((S)-2-(dimethylamino)propanamido)-N,3-dimethylbutanamide] | – | 5 to 10 | 4.2 | 12.7 | – | –
